Results: patent US6992215B2, “Thiol-based NAALADase inhibitors” (Guildford Pharmaceuticals Inc., priority 2001, dated 2006)

What was measured:
cortical cell cultures = experiment: In Vitro Assay on Ischemia (glutamate toxicity after potassium cyanide / 2-deoxyglucose insult); assay type: cell-based; settings: concentration required to cause a 50% reduction in glutamate toxicity following an ischemic insult
Experimental: To examine the in vitro effect of the inventive compounds on ischemia, cortical cell cultures were treated with various compounds of this invention during an ischemic insult utilizing potassium cyanide and 2-deoxyglucose, and for one hour thereafter. For a description of the experimental method used, see Vornov et al., J. Neurochem., Vol. 65, No. 4, pp. […] (1995).

[1] = test system: chronic constrictive injury-induced rats; experiment: Neuropathic pain in CCI model (sciatic nerve ligation, thermal hyperalgesia); assay type: in vivo; settings: 10, 1 or 0.1 mg/kg for 15 days after sciatic nerve ligation, FIGS. 13-15
Experimental: Sciatic nerve ligation, consisting of 4 ligatures tied loosely around the sciatic nerve at 1 mm intervals proximal to the nerve trifurcation, was performed on rats. […] The rats were habituated to a Hargreaves apparatus. An infrared heat source was directed onto the dorsal surface of each rat's hindpaws and the time taken for the rat to withdraw its paws was noted. The difference in scores between the latency of the response for the paw on the operated side versus the paw on the unoperated control side was determined.
The rats were treated with either Compound 49 (10, 1 or 0.1 mg/kg) or a vehicle for 15 days after sciatic nerve ligation. Thermal pain responses were measured at days 0, 1, 5, 8, 11 and 15. The differences in scores for the rats treated with a vehicle and the rats treated with Compound 49 are graphically presented in FIGS. 13-15.
The rats were treated with either Compound 5 (50, 30, 10, 3, 1 or 0.3 mg/kg) or a vehicle for 12 (or 15) days after sciatic nerve ligation. Thermal pain responses were measured at days 0, 1, 5, 8 and 12 (and 15). The differences in scores for the rats treated with a vehicle and the rats treated with Compound 5 are graphically presented in FIGS. 17-22.
The rats received either Compound C (50 mg/kg i.p. daily) or a vehicle starting 10 days post surgery. […] Normal (unoperated) rats had approximately equal latencies for both paws. This effect was significant starting at 11 days of drug treatment and persisted through to the end of the study (for 21 days of daily dosing).

| Structure (SMILES) | EC50 (cortical cell cultures) [nM] | difference in scores between the operated and unoperated paws [1] |
| --- | --- | --- |
| O=C(O)c1ccc(Cl)c(CC(CCCS)C(=O)O)c1 (stereo not drawn) [Compound 10, 5-carboxy-2-chloro-alpha-(3-mercaptopropyl)-benzenepropanoic acid] | 7.7 |  |
| N#Cc1ccccc1CC(CCCS)C(=O)O (stereo not drawn) [Compound 8, 2-cyano-alpha-(3-mercaptopropyl)-benzenepropanoic acid] | 133 |  |
| N#Cc1ccccc1-c1ccc(CC(CCCS)C(=O)O)cc1 (stereo not drawn) [Compound 12, 4-(2-cyanophenyl)-alpha-(3-mercaptopropyl)-benzenepropanoic acid] | 188 |  |
| O=C(O)c1ccc(F)c(CC(CCCS)C(=O)O)c1 (stereo not drawn) [Compound 35, 5-carboxy-2-fluoro-alpha-(3-mercaptopropyl)-benzenepropanoic acid] | 23 |  |
| CC(C)(C)c1cc(CC(CCCS)C(=O)O)cc(C(=O)O)c1 (stereo not drawn) [Compound 49, 3-carboxy-5-(1,1-dimethylethyl)-alpha-(3-mercaptopropyl)-benzenepropanoic acid] |  | normalized the difference in scores |
| O=C(O)Cc1cccc(OC(CCCS)C(=O)O)c1 (stereo not drawn) [Compound 20, 3-(1-carboxy-4-mercaptobutoxy)-benzeneacetic acid] | 39.3 |  |
| CS(=O)(=O)c1ccc(CC(CCCS)C(=O)O)cc1 (stereo not drawn) [Compound 7, alpha-(3-mercaptopropyl)-4-(methylsulfonyl)-benzenepropanoic acid] | 1060 |  |
| O=C(O)c1cc(CC(CCCS)C(=O)O)cc(-c2ccccc2)c1 (stereo not drawn) [Compound 55, 5-(2-carboxy-5-mercaptopentyl)-[1,1′-biphenyl]-3-carboxylic acid] | 1 |  |
| O=C(O)c1cc(CC(CCCS)C(=O)O)ccc1Cl (stereo not drawn) [Compound 32, 3-carboxy-4-chloro-alpha-(3-mercaptopropyl)-benzenepropanoic acid] | 7 |  |
| O=C(O)c1cc(CC(CCCS)C(=O)O)cc(C(=O)O)c1 (stereo not drawn) [Compound 9, 5-(2-carboxy-5-mercaptopentyl)-1,3-benzenedicarboxylic acid] | 104 |  |
| CC(=O)Nc1ccc(CC(CCCS)C(=O)O)cc1 (stereo not drawn) [Compound 26, 4-(acetylamino)-alpha-(3-mercaptopropyl)-benzenepropanoic acid] | 1800 |  |
| O=C(O)c1c(F)c(F)c(CC(CCCS)C(=O)O)c(F)c1F (stereo not drawn) [Compound 39, 4-carboxy-2,3,5,6-tetrafluoro-alpha-(3-mercaptopropyl)-benzenepropanoic acid] | 290 |  |
| O=C(O)c1cccc(OC(CCCS)C(=O)O)c1 (stereo not drawn) [Compound 14, 3-(1-carboxy-4-mercaptobutoxy)-benzoic acid] | 16 |  |
| O=C(O)c1ccccc1CC(CCCS)C(=O)O (stereo not drawn) [Compound 38, 2-carboxy-alpha-(3-mercaptopropyl)-benzenepropanoic acid] | 762 |  |
| O=C(O)c1ccc([N+](=O)[O-])c(CC(CCCS)C(=O)O)c1 (stereo not drawn) [Compound 50, 5-carboxy-alpha-(3-mercaptopropyl)-2-nitro-benzenepropanoic acid] | 26 |  |
| O=C(O)C(CCCS)Sc1ccccc1 (stereo not drawn) [Compound 40, 5-mercapto-2-(phenylthio)-pentanoic acid] | 452 |  |
| O=C(O)c1cc(Br)cc(CC(CCCS)C(=O)O)c1 (stereo not drawn) [Compound 45, 3-bromo-5-carboxy-alpha-(3-mercaptopropyl)-benzenepropanoic acid] | 2 |  |
| O=C(O)C(CCCS)Oc1ccccc1 (stereo not drawn) [Compound 15, 5-mercapto-2-phenoxy-pentanoic acid] | 1000 |  |
| O=C(O)CNC(=O)c1cccc(CC(CCCS)C(=O)O)c1 (stereo not drawn) [Compound 46, 3-[[(carboxymethyl)amino]carbonyl]-alpha-(3-mercaptopropyl)-benzenepropanoic acid] | 544 |  |
| O=C(O)c1ccc(OC(CCCS)C(=O)O)cc1 (stereo not drawn) [Compound 30, 4-(1-carboxy-4-mercaptobutoxy)-benzoic acid] | 399 |  |

| Structure (SMILES) | EC50 (cortical cell cultures) [nM] | difference in scores between the operated and unoperated paws [1] |
| --- | --- | --- |
| O=C(O)c1cc(CC(CCCS)C(=O)O)ccc1F (stereo not drawn) [Compound 11, 3-carboxy-4-fluoro-alpha-(3-mercaptopropyl)-benzenepropanoic acid] | 15.4 |  |
| COc1ccc(C(=O)O)cc1OC(CCCS)C(=O)O (stereo not drawn) [Compound 27, 3-(1-carboxy-4-mercaptobutoxy)-4-methoxy-benzoic acid] | 155 |  |
| COc1ccc(C(=O)O)cc1CC(CCCS)C(=O)O (stereo not drawn) [Compound 36, 5-carboxy-alpha-(3-mercaptopropyl)-2-methoxy-benzenepropanoic acid] | 74.9 |  |
| O=C(O)c1cc(CC(CCCS)C(=O)O)ccc1-c1ccccc1 (stereo not drawn) [Compound 58, 4-(2-carboxy-5-mercaptopentyl)-[1,1′-biphenyl]-2-carboxylic acid] | 16 |  |
| O=C(O)c1ccc(-c2ccccc2)c(CC(CCCS)C(=O)O)c1 (stereo not drawn) [Compound 56] | 11 |  |
| O=C(O)c1cccc(CC(CCCS)C(=O)O)c1Cl (stereo not drawn) [Compound 31, 3-carboxy-2-chloro-alpha-(3-mercaptopropyl)-benzenepropanoic acid] | 31 |  |
| O=C(O)c1cccc(CC(CCCS)C(=O)O)c1-c1ccccc1 (stereo not drawn) [Compound 57, 6-(2-carboxy-5-mercaptopentyl)-[1,1′-biphenyl]-2-carboxylic acid] | 21 |  |
| O=C(O)c1ccc(Cl)c(OC(CCCS)C(=O)O)c1 (stereo not drawn) [Compound 33, 3-(1-carboxy-4-mercaptobutoxy)-4-chloro-benzoic acid] | 110 |  |
| COc1cc(OC)cc(OC(CCCS)C(=O)O)c1 (stereo not drawn) [Compound 16, 2-(3,5-dimethoxyphenoxy)-5-mercapto-pentanoic acid] | 267 |  |
| O=C(O)Cc1ccc(CC(CCCS)C(=O)O)cc1 (stereo not drawn) [Compound 28, 4-(carboxymethyl)-alpha-(3-mercaptopropyl)-benzenepropanoic acid] | 48 |  |
| NC(=O)c1ccccc1CC(CCCS)C(=O)O (stereo not drawn) [Compound 13, 2-(aminocarbonyl)-alpha-(3-mercaptopropyl)-benzenepropanoic acid] | 10000 |  |
| O=C(O)c1cc(CC(CCCS)C(=O)O)cc([N+](=O)[O-])c1 (stereo not drawn) [Compound 48, 3-carboxy-alpha-(3-mercaptopropyl)-5-nitro-benzenepropanoic acid] | 2.4 |  |
| O=C(O)C(CCCS)Cc1ccccc1Cl (stereo not drawn) [Compound 43, 2-chloro-alpha-(3-mercaptopropyl)-benzenepropanoic acid] | 452 |  |
| CC(=O)c1cccc(OC(CCCS)C(=O)O)c1 (stereo not drawn) [Compound 23, 2-(3-acetylphenoxy)-5-mercapto-pentanoic acid] | 21 |  |
| O=C(O)c1ccc(CC(CCCS)C(=O)O)c2ccccc12 (stereo not drawn) [Compound 37, 4-carboxy-alpha-(3-mercaptopropyl)-1-naphthalenepropanoic acid] | 215 |  |
| O=C(O)Cc1ccc(OC(CCCS)C(=O)O)cc1 (stereo not drawn) [Compound 21, 4-(1-carboxy-4-mercaptobutoxy)-benzeneacetic acid] | 11.6 |  |
| O=C(O)c1ccc(CC(CCCS)C(=O)O)cc1Br (stereo not drawn) [Compound 47, 3-bromo-4-carboxy-alpha-(3-mercaptopropyl)-benzenepropanoic acid] | 119 |  |
| O=C(O)c1ccc(CC(CCCS)C(=O)O)cc1 (stereo not drawn) [Compound 6, 4-carboxy-alpha-(3-mercaptopropyl)-benzenepropanoic acid] | 17.8 |  |
| O=C(O)c1ccc(F)c(OC(CCCS)C(=O)O)c1 (stereo not drawn) [Compound 34, 3-(1-carboxy-4-mercaptobutoxy)-4-fluoro-benzoic acid] | 346 |  |
